Test results as given in ChEMBL document CHEMBL3045068, “Effect of methomyl and oxamyl soil applications on early control of nematodes and insects” (Pest Manag Sci, 2011).
≈ marks a conversion by molar mass, not a printed value.

Columns and labels:
Phaseolus lunatus = experiment: Phytotoxicity in Phaseolus lunatus (lima bean) root assessed as root dry weight at 2.56 kg ai/ha applied to soil measured up to 14 days under green house conditions (reference value: 0.36 +/- 0.071 g); format: organism-based; details: in vivo, other, 336 h
Trichoplusia ni = experiment: Insecticidal activity against Trichoplusia ni (cabbage looper) infested cabbage assessed as mortality applied to soil after 72 hr; format: functional
Bemisia tabaci = experiment: Insecticidal activity against second-instar […] stage of Bemisia tabaci (sweet potato whitefly) infested cotton assessed as mortality applied through foliar spray after 6 days; format: functional
Meloidogyne incognita [1] = experiment: Nematicidal activity against second juvenile stage of Meloidogyne incognita (root-knot nematode) infected lima bean plant assessed as shoot dry weight at 2 kg ai/ha applied to soil measured during planting under green house conditions (reference value: 1.84 +/- 0.18 g); format: functional
Meloidogyne incognita [2] = experiment: Nematicidal activity against second juvenile stage of Meloidogyne incognita (root-knot nematode) infected lima bean plant assessed as shoot dry weight at 3 kg ai/ha applied to soil measured up to 14 days post planting under green house conditions (reference value: 1.84 +/- 0.18 g); format: functional
Meloidogyne incognita [3] = experiment: Nematicidal activity against second juvenile stage of Meloidogyne incognita (root-knot nematode) infected lima bean plant assessed as shoot dry weight at 2 kg ai/ha applied to soil measured up to 7 days post planting under green house conditions (reference value: 1.84 +/- 0.18 g); format: functional
Meloidogyne incognita [4] = experiment: Nematicidal activity against second juvenile stage of Meloidogyne incognita (root-knot nematode) infected lima bean plant assessed as reduction in root gall index at 4 kg ai/ha applied to soil measured up to 14 days post planting under green house conditions (reference value: 7 +/- 0.27%); format: functional
Meloidogyne incognita [5] = experiment: Nematicidal activity against second juvenile stage of Meloidogyne incognita (root-knot nematode) infected lima bean plant assessed as root dry weight at 2 kg ai/ha applied to soil measured up to 7 days post planting under green house conditions (reference value: 0.5 +/- 0.052 g); format: functional
Meloidogyne incognita [6] = experiment: Nematicidal activity against second juvenile stage of Meloidogyne incognita (root-knot nematode) infected lima bean plant assessed as root dry weight at 1 kg ai/ha applied to soil measured during planting under green house conditions (reference value: 0.5 +/- 0.052 g); format: functional
Meloidogyne incognita [7] = experiment: Nematicidal activity against second juvenile stage of Meloidogyne incognita (root-knot nematode) infected pea plant assessed as root fresh weight at 3 kg ai/ha applied to soil measured up to 14 days post planting under green house conditions (reference value: 1.83 +/- 0.3 g); format: functional
Meloidogyne incognita [8] = experiment: Nematicidal activity against second juvenile stage of Meloidogyne incognita (root-knot nematode) infected pea plant assessed as root dry weight at 4 kg ai/ha applied to soil measured up to 7 days post planting under green house conditions (reference value: 0.25 +/- 0.041 g); format: functional
Meloidogyne incognita [9] = experiment: Nematicidal activity against second juvenile stage of Meloidogyne incognita (root-knot nematode) infested soil containing cucumber seeds assessed as mortality applied post seed germination measured after 7 days under green house conditions; format: functional
Meloidogyne incognita [10] = experiment: Nematicidal activity against second juvenile stage of Meloidogyne incognita (root-knot nematode) assessed as mortality after 48 hr; format: functional
Meloidogyne incognita [11] = experiment: Nematicidal activity against second juvenile stage of Meloidogyne incognita (root-knot nematode) assessed as mortality at 20 mg ai/L after 48 to 72 hr relative to control; format: functional
Meloidogyne incognita [12] = experiment: Nematicidal activity against second juvenile stage of Meloidogyne incognita (root-knot nematode) infected pea plant assessed as reduction in root gall index at 4 kg ai/ha applied to soil measured up to 7 days post planting under green house conditions (reference value: 9.7 +/- 0.30%); format: functional
Meloidogyne incognita [13] = experiment: Nematicidal activity against second juvenile stage of Meloidogyne incognita (root-knot nematode) infected pea plant assessed as reduction in root gall index at 4 kg ai/ha applied to soil measured up to 14 days post planting under green house conditions (reference value: 9.7 +/- 0.30%); format: functional
Meloidogyne incognita [14] = experiment: Nematicidal activity against second juvenile stage of Meloidogyne incognita (root-knot nematode) infected pea plant assessed as emergence at 4 kg ai/ha applied to soil measured up to 7 days post planting under green house conditions (reference value: 75 +/- 13%); format: functional
Meloidogyne incognita [15] = experiment: Nematicidal activity against second juvenile stage of Meloidogyne incognita (root-knot nematode) infected pea plant assessed as reduction in root gall index at 3 kg ai/ha applied to soil measured up to 14 days post planting under green house conditions (reference value: 9.7 +/- 0.30%); format: functional
Meloidogyne incognita [16] = experiment: Nematicidal activity against second juvenile stage of Meloidogyne incognita (root-knot nematode) infected pea plant assessed as reduction in root gall index at 2 kg ai/ha applied to soil measured up to 7 days post planting under green house conditions (reference value: 9.7 +/- 0.30%); format: functional
Meloidogyne incognita [17] = experiment: Nematicidal activity against second juvenile stage of Meloidogyne incognita (root-knot nematode) infected pea plant assessed as root fresh weight at 4 kg ai/ha applied to soil measured up to 14 days post planting under green house conditions (reference value: 1.83 +/- 0.3 g); format: functional
Pisum sativum [18] = experiment: Phytotoxicity in Pisum sativum (pea) assessed as root dry weight at 3 kg ai/ha applied to soil measured up to 14 days post planting at 27 degC under green house conditions (reference value: 0.33 +/- 0.075 g); format: organism-based; details: lathyrus oleraceus, in vivo, other, 336 h
Pisum sativum [19] = experiment: Phytotoxicity in Pisum sativum (pea) assessed as root dry weight at 2 kg ai/ha applied to soil measured up to 7 days post planting at 27 degC under green house conditions (reference value: 0.33 +/- 0.075 g); format: organism-based; details: lathyrus oleraceus, in vivo, other, 168 h
Pisum sativum [20] = experiment: Phytotoxicity in Pisum sativum (pea) assessed as plant fresh weight at 3 kg ai/ha applied to soil measured up to 7 days post planting at 27 degC under green house conditions (reference value: 3.9 +/- 0.83 g); format: organism-based; details: lathyrus oleraceus, in vivo, other, 168 h
Pisum sativum [21] = experiment: Phytotoxicity in Pisum sativum (pea) assessed as plant height at 4 kg ai/ha applied to soil measured up to 7 days post planting at 27 degC under green house conditions (reference value: 9.6 +/- 1.5 cm); format: organism-based; details: lathyrus oleraceus, in vivo, other, 168 h
Pisum sativum [22] = experiment: Phytotoxicity in Pisum sativum (pea) assessed as emergence at 3 kg ai/ha applied to soil measured up to 7 days post planting at 19 degC relative to untreated control; format: organism-based; details: lathyrus oleraceus, in vivo, other, 168 h
Meloidogyne incognita [23] = experiment: Nematicidal activity against second juvenile stage of Meloidogyne incognita (root-knot nematode) infected lima bean plant assessed as root dry weight at 3 kg ai/ha applied to soil measured up to 7 days post planting under green house conditions (reference value: 0.5 +/- 0.052 g); format: functional
Meloidogyne incognita [24] = experiment: Nematicidal activity against second juvenile stage of Meloidogyne incognita (root-knot nematode) infected lima bean plant assessed as root dry weight at 3 kg ai/ha applied to soil measured up to 14 days post planting under green house conditions (reference value: 0.5 +/- 0.052 g); format: functional
Meloidogyne incognita [25] = experiment: Nematicidal activity against second juvenile stage of Meloidogyne incognita (root-knot nematode) infected lima bean plant assessed as reduction in root gall index at 2 kg ai/ha applied to soil measured during planting under green house conditions (reference value: 7 +/- 0.27%); format: functional

With `CNC(=O)ON=C(C)SC` [METHOMYL] the Activity (Phaseolus lunatus) was 0.31 g, the LC90 (Trichoplusia ni) was 547 µg/mL (≈ 3370 µM) and the LC50 (Trichoplusia ni; Trichoplusia ni, soil, 72 h) was 100 µg/mL (≈ 616 µM). The LC90 (Bemisia tabaci) was 1589 µg/mL (≈ 9800 µM), the LC50 (Bemisia tabaci; Bemisia tabaci, foliar, 144 h) was 203 µg/mL (≈ 1250 µM) and the Activity (Meloidogyne incognita [1]) was 1.59 g. The Activity (Meloidogyne incognita [2]) was 1.55 g, the Activity (Meloidogyne incognita [3]) was 1.83 g and the Root_galling_index (Meloidogyne incognita [4]) was 0%. For the same compound, the Activity (Meloidogyne incognita [5]) was 0.38 g, the Activity (Meloidogyne incognita [6]) was 0.44 g and the Activity (Meloidogyne incognita [7]) was 0.89 g. For the same compound, the Activity (Meloidogyne incognita [8]) was 0.28 g, the LC90 (Meloidogyne incognita [9]) was 69.7 µg/mL (≈ 430 µM) and the LC50 (Meloidogyne incognita [9]; Meloidogyne incognita, Juvenile stage, 168 h) was 10.2 µg/mL (≈ 62.9 µM). It also gave an LC90 (Meloidogyne incognita [10]) of 15.2 µg/mL (≈ 93.7 µM), an LC50 (Meloidogyne incognita [10]; Meloidogyne incognita, Juvenile stage, 48 h) of 4.9 µg/mL (≈ 30.2 µM) and a mortality at 20 µg/mL (Meloidogyne incognita [11]) of 95%. It also gave a Root_galling_index (Meloidogyne incognita [12]) of 0%, a Root_galling_index (Meloidogyne incognita [13]) of 0% and an Activity (Meloidogyne incognita [14]) of 88%. For the same compound, the Root_galling_index (Meloidogyne incognita [15]) was 0%, the Root_galling_index (Meloidogyne incognita [16]) was 0% and the Activity (Meloidogyne incognita [17]) was 1.36 g. It also gave an Activity (Pisum sativum [18]) of 0.27 g, an Activity (Pisum sativum [19]) of 0.16 g and an Activity (Pisum sativum [20]) of 3.3 g. It also gave an Activity (Pisum sativum [21]) of 9.1 cm, an Activity (Pisum sativum [22]) of 87% and an Activity (Meloidogyne incognita [23]) of 0.39 g. The Activity (Meloidogyne incognita [24]) was 0.38 g and the Root_galling_index (Meloidogyne incognita [25]) was 0%.
